In patent US12269859B2, “Synthetic immune receptors and methods of use thereof” (Angeles Therapeutics, Inc., priority 2016, dated 2025):
Entries after “also recorded” stand apart in the source; their conditions may differ.

Columns and labels:
[1] = tested on: RAJI cells; test: GLuc cytotoxicity assay, RAJI-GLuc cells; format: cell-based, human
Procedure: (D) Assay for Cytotoxic Activity in vitro and in vivo: The uninfected T cells or those expressing a control vector or SIR are cocultured with the target cell lines expressing a non-secretory form of a luciferase (such as GLuc, NLuc, Turboluc 16 etc.) for 4-96 hours and induction of cell lysis examined by measuring the luciferase activity as described in PCT/US17/52344. Alternate methods for measurement of cytotoxic activity (e.g., ^51Cr release assay or LDH release assay) can be used as well. The activity of T cells expressing a SIR can be also assayed in vivo using appropriate xenograft models in immunodeficient mice.
Cell death assay. To measure cell death, a novel assay based on ectopic cytosolic expression of Gluc or NLuc was utilized as described in PCT/US17/52344 “A Non-Radioactive Cytotoxicity Assay”. The method involves expression of a reporter in a target cells in a manner so that it is preferentially retained within the healthy cells but is either released from dead and dying cells or whose activity can be preferentially measured in dead and dying cells. The preferred reporter for this assay are 1) non-secreted forms of luciferases from the copepods, such as Gaussia princeps, Pleuromamma abdominalis, Metridia pacifica, Metridia curticauda, Metridia asymmetrica, Metridia okhotensis, Metridia longa, Lucicutia ovaliformis, Heterorhabdus tanneri, and Pleuromamma scutullata 2) engineered luciferase reporters from deep sea shrimp, such as NanoLuc. The sequence of several such reporter vectors is provided in SEQ ID NO: 881 to SEQ ID NO: 887. The above vectors were used to generate retrovirus and lentiviruses which in turn were used to generate polyclonal population of several target cell lines stably expressing GLuc, NLuc, TurboLuc or MLuc7 following selection with appropriate antibiotics. Unless indicated otherwise, the target cells stably expressing the different luciferases (GLuc, Nluc, MLuc7 or TurboLuc16) were plated in triplicate in a 384 well plate in the media used for growing the target cells. Target cells which grow in suspension were generally plated at a concentration of 2-3×10^4 per well, while target cells which grow as adherent monolayers were plated at a concentration of 1-2×10^4 per well. Unless indicated otherwise, the target cells were cocultured with the genetically modified T cells (i.e. those expressing SIR or CAR) at an Effector:Target (E:T) ratio varying from 1:1 to 10:1 for 4 hours to 96 hours. In the case target cells grow as adherent cells (e.g., HeLa cells), they were allowed to attach to the bottom of the wells overnight before the T cells were added. T cells mediated induction of lysis of target cells was assayed by increase of luciferase activity as measured by BioTek synergy plate reader by directly injecting 0.5×CTZ assay buffer containing native coeloentrazine (Nanaolight).
CTZ assay. A 100× stock solution of native coelenterazine (CTZ; Nanolight, cat #303) was made by dissolving 1 mg of lyophilized CT powder in 1.1 ml of 100% Methanol supplemented with 30 μl of 6N HCl to avoid oxidation of CTZ with time. To make CTZ assay buffer, the 100× stock solution of CTZ was diluted to 0.5× concentration in PBS. Unless indicated otherwise, a total volume of 15 μl of the CTZ assay buffer (as prepared above) was added to each well of a 384-well white plate (Greiner, 384 well white plate cat #781075) containing cells expressing the non-secretory form of the luciferase in approximately 50-60 μl volume of medium and plates were read for luminescence in endpoint mode using BioTek synergyH4 plate reader. For 96 well plates, cells were plated in 200 μl of media and approximately 50 μl of 0.5×CTZ assay buffer was added. Unless indicated otherwise, the 0.5×CTZ assay buffer was used for assaying the activity of GLuc, TurboLuc16, and MLuc7. The CTZ assay buffer (diluted to 0.125× concentration) was also used for measurement of NLuc activity in some experiments (see below).

[2] = tested on: RAJI cells; test: RAJI xenograft model of lymphoma in NSG mice (survival); format: in vivo
Procedure: In vivo efficacy of SIR targeting CD19. […] SIR constructs and Gluc-PAC-G07 control construct encoding non-secretory form of Guassia Luciferase. Approximately half the cells were selected with puromycin while the other half was expanded without puromycin selection. NSG mice (Jackson Lab) were sub-lethally irradiated at a dose of 175 cGy. Approximately 24 hours post irradiation (day 2), mice were injected with 2.5×10^4 RAJI cells via tail-vein. […] Control mice (n=5) received no T cells or uninfected T cells. Mice were given human IL2 (400 IU intraperitoneally) on alternate days till the death of all mice in control group.
Approximately half the cells were selected with puromycin while the other half was expanded without puromycin selection. NSG mice (Jackson Lab) were sub-lethally irradiated at a dose of 175 cGy. Approximately 24 hours post irradiation (day 2), mice were injected with 2.5×10^4 RAJI cells via tail-vein. […] Control mice (n=5) received no T cells or uninfected T cells. Mice were given human IL2 (400 IU intraperitoneally) on alternate days till the death of all mice in control group.
SIR construct. NSG mice (Jackson Lab) were sub-lethally irradiated at a dose of 175 cGy. Approximately 24 hours post irradiation (day 2), mice were injected with 2.5×10^4 RAJI cells via tail-vein. […] SIR encoding lentivirus. Control mice (n=5) were injected with 5 million uninfected T cells or given no T cells.
SIR constructs. […] SIR were included as controls. NSG mice (n=5) were sub-lethally irradiated at a dose of 175 cGy. 24 hours post irradiation (day 2), mice were injected with 2.5×10^4 RAJI cells via tail-vein. […] Mice were given human IL2 (400 IU i.p.) on alternate days till the death of all mice in control group.
Human peripheral blood T cells isolated using CD3 magnetic beads were infected with lentiviruses expressing the indicated SIR constructs targeting Lym1 and Lym2. On day 1, the NSG mice were sub-lethally irradiated at a dose of 175 cGy. 24 hours post irradiation (day 2), mice were injected with 25×10^3 Raji cells intravenously. On day 3, the mice were treated intravenously with 10 million indicated CAR-T cells. Beginning on day 4, mice were injected with human IL-2 i.p. at a dose of 400 IU/mice every alternate day after the injection CAR-T cells till the death of all mice in control group.

[3] = FIG. 17: 2.5×10^4 RAJI cells, 5 million T cells on day 3, human IL2 (400 IU i.p.) on alternate days

| Substance | lysis of target cells by increase of GLuc activity (in words) ([1]; E:T 1:1, 96 hours) | lysis of target cells by increase of GLuc activity (in words) ([1]; E:T 10:1, 4 hours) | mean Gluc values ([1]; E:T 10:1, 4 hours) | Median Survival [2, 3] | Median Survival ([2]; NSG mice, 2.5×10^4 RAJI cells via tail-vein, 5 million T cells on day 3, Table 13) | survival (in words) ([2]; experiment of Table 13) |
| --- | --- | --- | --- | --- | --- | --- |
| CD8SP-CD19Bu12-vL-V5-[TCRb-S57C-opt1]-F-P2A-SP-CD19Bu12-vH-Myc-[TCRa-T48C-opt1]-F-F2A-PAC [SEQ ID NO:1021] | increase in GLuc activity | increase in GLuc activity | 2547 | 51 days |  |  |
| CD8SP-FMC63-vL-V5-[TCRb-S57C-opt1]-F-P2A-SP-FMC63-vH-Myc-[TCRa-T48C-opt1]-F-F2A-PAC [SEQ ID NO:900] | increase in GLuc activity | increase in GLuc activity; also recorded: induced effective target cell lysis; also recorded: Modest cytotoxicity | 3042 | 28.0 days | 27 days | conferred survival advantage |
